The results in this text go back to US9657360B2, “Detection of viral infection” (priority 2011, dated 2017).

Residues, ends and D or L forms follow the SMILES beside them. *: point of attachment. Cbz = O=C(OCc1ccccc1)*

In one series the test system is Hendra virus. The format is cell-based.

`Cc1ccc(S(=O)(=O)/C=C/C#N)cc1` [Bay11-7082]: the “Hendra virus replication (HeV titres)” value in the series with Hendra virus is listed as “reduced (not significantly)”. For the same compound, in the series on HeLa cells, the HeLa cell viability result was “not adversely impacting HeLa cell viability”.

On to `CC(C)C[C@@H](C=O)NC(=O)[C@H](CC(C)C)NC(=O)[C@H](CC(C)C)NC(=O)OCc1ccccc1` [MG-132] (Cbz-Leu-Leu-Leu-aldehyde), for which the “Hendra virus replication (HeV titres)” value in the series on Hendra virus was “significantly reduced”. Further, the HeLa cell viability entry with HeLa cells is given as “not adversely impacting HeLa cell viability”.
